According to ChEMBL document CHEMBL1148873, “Carbonic anhydrase inhibitors: the beta-carbonic anhydrase from Helicobacter pylori is a new target for sulfonamide and sulfamate inhibitors” (Bioorg Med Chem Lett, 2007):

Tests used:
Helicobacter pylori [1] = test system: Helicobacter pylori
Description: Inhibition of Helicobacter pylori alpha carbonic anhydrase by stopped-flow CO2 hydrase assay

[2] = target: Carbonic anhydrase 1 (Homo sapiens) (UniProt P00915)
Description: Inhibition of human carbonic anhydrase 1 by stopped-flow CO2 hydrase assay

Helicobacter pylori [3] = test system: Helicobacter pylori; remark: listed apart in the source
Description: Inhibition of Helicobacter pylori beta carbonic anhydrase by stopped-flow CO2 hydrase assay

[4] = target: Carbonic anhydrase 2 (Homo sapiens) (UniProt P00918)
Description: Inhibition of human carbonic anhydrase 2 by stopped-flow CO2 hydrase assay

Carbonic anhydrase 1 (Homo sapiens), sequence (P00915 2-261 limits assumed): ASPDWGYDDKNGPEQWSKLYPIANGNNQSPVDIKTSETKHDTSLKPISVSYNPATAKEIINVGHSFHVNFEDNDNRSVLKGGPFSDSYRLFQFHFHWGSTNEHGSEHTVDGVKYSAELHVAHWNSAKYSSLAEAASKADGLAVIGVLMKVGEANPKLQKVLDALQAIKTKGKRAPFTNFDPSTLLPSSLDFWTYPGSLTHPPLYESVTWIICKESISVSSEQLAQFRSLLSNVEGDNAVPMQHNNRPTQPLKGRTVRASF

Structure (SMILES) | Kinact (Helicobacter pylori [1]) | Kinact [2] | Kinact (Helicobacter pylori [3]) | Kinact [4]
Nc1ccc(S(N)(=O)=O)cc1I | 510 nM | 6 µM | 1150 nM | 
NS(=O)(=O)c1nnc(-c2ccccc2Cl)s1 |  | 0.69 µM | 37 nM | 
CC(C)(C)c1ccc(C(=O)Nc2ccc(S(N)(=O)=O)cc2)cc1 | 79 nM | 14.2 µM | 158 nM | 
NS(=O)(=O)c1ccc(C(=O)O)cc1 | 1050 nM |  | 450 nM | 
Cn1nc(S(N)(=O)=O)sc1=N | 549 nM |  | 768 nM | 
CC(=O)/N=c1/sc(S(N)(=O)=O)nn1C | 225 nM |  | 176 nM | 
CC(C)(C)c1ccc(S(=O)(=O)Nc2nnc(S(N)(=O)=O)s2)cc1 | 12 nM | 0.338 µM | 24 nM | 
Nc1ccc(S(N)(=O)=O)cc1F | 1230 nM |  | 1360 nM | 
Nc1ccc(S(N)(=O)=O)cc1Br | 452 nM |  | 1240 nM | 
Nc1nccc(Nc2ccc(S(N)(=O)=O)cc2)n1 | 84 nM |  | 38 nM | 
Cc1ccc(S(N)(=O)=O)cc1 | 430 nM | 78.5 µM | 2470 nM | 
CC(C)(C)c1ccc(S(=O)(=O)NCCc2ccc(S(N)(=O)=O)cc2)cc1 | 27 nM | 12 µM | 45 nM | 94 nM
Nc1ccc(S(=O)(=O)NCCc2ccc(S(N)(=O)=O)cc2)cc1 | 114 nM |  | 71 nM | 
Nc1ccc(S(=O)(=O)Nc2nnc(S(N)(=O)=O)s2)cc1 | 268 nM |  | 64 nM | 
CC(C)(C)c1ccc(C(=O)Nc2ccccc2S(N)(=O)=O)cc1 | 539 nM | 12.3 µM | 23500 nM | 
CC(C)(C)c1ccc(C(=O)NCc2ccc(S(N)(=O)=O)cc2)cc1 | 539 nM | 12.3 µM | 101 nM | 241 nM
Nc1ccc(S(=O)(=O)NCc2ccc(S(N)(=O)=O)cc2)cc1 | 131 nM |  | 87 nM | 
CC(C)(C)c1ccc(S(=O)(=O)Nc2ccc(S(N)(=O)=O)cc2)cc1 | 60 nM | 13 µM | 150 nM | 
CC(C)(C)c1ccc(S(=O)(=O)Nc2cccc(S(N)(=O)=O)c2)cc1 | 318 nM | 9.62 µM | 213 nM | 
NS(=O)(=O)c1ccc(CO)cc1 | 876 nM |  | 236 nM | 
NNc1ccc(S(N)(=O)=O)cc1 |  | 28 µM | 8650 nM | 
CC(C)(C)c1ccc(C(=O)NCCc2ccc(S(N)(=O)=O)cc2)cc1 | 62 nM | 13.3 µM | 44 nM | 127 nM
CC(C)(C)c1ccc(C(=O)Nc2cccc(S(N)(=O)=O)c2)cc1 | 316 nM | 10.8 µM | 241 nM | 
CC(C)(C)c1ccc(C(=O)Nc2nnc(S(N)(=O)=O)s2)cc1 | 13 nM | 0.541 µM | 28 nM | 
CCN[C@H]1CN(CCCOC)S(=O)(=O)c2sc(S(N)(=O)=O)cc21 | 210 nM |  | 128 nM | 
Nc1ccccc1S(N)(=O)=O | 426 nM |  | 16400 nM | 
NCc1ccc(S(N)(=O)=O)cc1 | 873 nM |  | 2360 nM | 
Nc1ccc(S(N)(=O)=O)cc1Cl | 378 nM |  | 1460 nM | 
CC(C)(C)c1ccc(S(=O)(=O)NCc2ccc(S(N)(=O)=O)cc2)cc1 | 31 nM | 12.2 µM | 96 nM | 104 nM
CC(C)(C)c1ccc(S(=O)(=O)Nc2ccccc2S(N)(=O)=O)cc1 | 640 nM | 14.7 µM | 24800 nM | 295 nM
